Measurements taken from patent publication US6399568B1, “Cyclic tetrapeptide derivatives and medicinal use thereof” (Japan Energy Corporation, priority 1997, dated 2002).
Non-standard residues stand in square brackets, D forms with d. Residues, ends and D or L forms follow the SMILES beside them. *: point of attachment. Asu = N[C@@H](CCCCCC(=O)O)C(=O)O; NHOH = ON*

Key:
B16/BL6 cells = test: MHC class-I molecule expression promoting activity; assay type: cell-based, mouse; settings: mean of a plurality of assays; 72 hours
Protocol: The cancer cells used were mouse melanoma cells, B16/BL6 cells, provided by, the National Cancer Institute, U.S.A. Said cells were cultivated in MEM media supplemented with 10% FBS at 37° C. in the presence of 5% carbon dioxide in an humidified incubator.
A compound to be tested was preliminarily dissolved in dimethyl sulfoxide (DMSO) and adjusted to a concentration of 100 mM or 10 mM (source solution).
Said B16/BL6 cells were inoculated on 96 well microplate at a cell density of 5000 cells per well, each well containing 200 μl of said medium. […] Thereafter, each well was once washed with PBS (phosphate buffered saline) and floating cells and the medium were removed. Then, the well was treated with 0.1% glutaraldehyde solution for 3 minutes to fix the cells.
The amount of MHC class-I molecule expressed on the surface of the fixed cells was measured by the following method. Anti-H-2K^bD^bD^d antibody, which is an antibody against mouse MHC classI molecule (commercially available from Meiji Milk Co., Ltd), was used as a primary antibody, biotinylated anti-mouse IgG+M (commercially available from Chemicon) was used as a secondary antibody, and streptavidin-β-galactosidase conjugate (commercially available from BRL) was reacted as a labelling enzyme. The amount of the thus labelled enzyme β-galactosidase was measured in a microplate reader by recording the fluorescent intensity (excitation: 365 nm, fluorescence: 450 nm) derived from the enzymaticreaction product using 4-methylumbelliferyl-β-D-galactoside (commercially available from Nacalai Tesque) as a substrate. […] The value obtained by subtracting said background level from the, actually measured value (an apparent value including the background level) was the true measurement reflecting the amount of expressed MHC class-I molecule.
A group without the addition of any compound to be tested was used as a reference group and the measurement of MHC class-I molecule expressed in said group was used as a standard value. The amount of MHC class-I molecule expressed at a concentration of addition of each test compound is shown as a relative amount, said standard value taken as one (1). For each compound to be tested, various concentrations of addition were selected to investigate the dependency of MHC class-I molecule expression promoting action on the concentration of addition.

[1] = system: colon cancer Colon26 cell line; test: Cell proliferation inhibition (72 hours); assay type: cell-based, mouse; settings: read-out: 50% proliferation inhibiting concentration Colon 26 (nM) mean
Description: (§1) In order to verify the action of the cyclic tetrapeptide derivative according to the present invention in inhibiting cell proliferation in cancerized cells, the action on the proliferation of the aforementioned B16/BL6 cells was investigated. The evaluation of cell proliferation rates was done utilizing a commercially available measuring kit, specifically, from Promega under the trade name CellTiter 96 Aqueous Non-Radioactive Proliferation Assay Kit. In the measuring kit, the amount of products through reduction of a reagent tetrazolium compound (3-(4,5-dimethylthiazol-2-yl)-5-(3-carboxymethoxyphenyl)-2-(4-sulfophenyl)-2H-tetrazolium, inner salt; MTS) by viable animal cells is determined by detecting spectrophotometrically the color generated from the products. Since the amount of products is proportional to the amount of viable cells, this kit is utilized to evaluate the amount of viable cells.
(§2) According to the procedure of Test Example 1, B16/BL6 cells are inoculated in a 96 well microplate and cultured for 24 hours. Then, 10 μl of a solution of the source solution of a compound to be tested which has been diluted to a predetermined amount per well is added. Thereafter, culture is continued for additional 48 hours and 20 μl of a reagent solution in the aforementioned CellTiter 96 Aqueous Non-Radioactive Proliferation Assay Kit is then added. After incubation is continued at 37° C. for 1 hour, the amount of color generation is measured as an absorbance at 490 n musing a microplate reader.
(§3) The amount of cell proliferation of a group to which a compound to be tested is added is expressed in a relative value as compared to the standard cell proliferation (100%) in a control group to which no compound to be tested is added. For each compound tested, the amounts of cell proliferation were measured at different concentrations of addition and the dependence of the quantitative cell proliferation on the concentration of addition was investigated. From the results, a concentration of addition at which the amount of cell proliferation was inhibited by 50% relative to the amount of cell proliferation in the control group without addition was determined.
(§4) The test method was in accordance with the above-mentioned procedure, except that the period of incubation after the addition of a compound was 72 hours.
(§5) As illustrative examples, results are shown for an evaluation using mouse malignant melanoma B16/BL6 and B16 cell lines; leukemia L1210 cell line, colon cancer Colon26 cell line, and liver cancer MH134 cell line as cancer cells. For the cell proliferation inhibiting action of each compound tested for these cancer cells, 50% proliferation inhibiting concentrations are shown in Table 4.

leukemia L1210 cell line = test: Cell proliferation inhibition (72 hours); assay type: cell-based, mouse; settings: read-out: 50% proliferation inhibiting concentration L1210 (nM) mean
Description: as §1, §2, §3, §4, §5

[2] = system: liver cancer MH134 cell line; test: Cell proliferation inhibition (72 hours); assay type: cell-based, mouse; settings: read-out: 50% proliferation inhibiting concentration MH134 (nM) mean
Description: as §1, §2, §3, §4, §5

[3] = system: mouse malignant melanoma B16/BL6 cell line; assay type: cell-based; settings: 72 hours; read-out: 50% proliferation inhibiting concentration B16/BL6 (nM) mean
Description: as §1
as §2, with “Then, 10 μl of a solution of the source solution of a compound to be tested which has been diluted to a predetermined amount per well is added.” left out
as §3, with “investigated.” for “investigated. From the results, a concentration of addition at which the amount of cell proliferation was inhibited by 50% relative to the amount of cell proliferation in the control group without addition was determined.”
as §4

B16 = test: In vivo anti-cancer activity in mouse (solid tumor system); settings: measured day-21, estimated from diameters
Protocol: (§6) Three mouse cancers Colon26, Meth A and B16 were used to evaluate in vivo anti-cancer activity of the cyclic tetrapeptide compounds according to the present invention in a solid tumor system. The cancer cells were cultured in a conventional manner, suspended in PBS and intradermally transplanted into a mouse ventral portion (10^5). The mouse used was CDF1, Balb/c or BDF1 (male, 7 weeks in age) for Colon 26, Meth A or B16, respectively. On day-4, 7 and 10 for Colon 26, or on day-7, 10, 13 and 16 for Meth A and B16 (day-0 being the day of cancer transplantation), a given amount of solution containing a predetermined amount of a compound to be tested was administered into the tail vein (10, 3 and 1 mg/kg; 2 ml/kg). In this example, the solution for administration used was PBS suspension (as neutralized with NaOH). On day-14 for Colon26 and on day-21 for Meth A and B16, the size of tumor (shorter and longer diameters) was measured. The tumor weight was estimated from the value obtained by calculation from the equation: ½×longer diameter×shorter diameter^2. Anti-tumor effects were based on the estimated tumor weight used as a measure and a tumor weight was estimated for a control group to which an equal amount of a drug-free solution was added; % inhibition was determined on the basis of the difference between the estimated tumor weights for the treated and control groups.

Colon 26 = test: as above; settings: measured day-14, estimated from diameters
Protocol: as §6

Meth A = test: as above
Protocol: as §6

CC[C@H](C)[C@@H]1NC(=O)[C@@H](Cc2ccc(OC)cc2)NC(=O)[C@H](CCCCCC(=O)NO)NC(=O)[C@H]2CCCN2C1=O [HDA-31, cyclo(-L-Asu(NHOH)-D-Tyr(Me)-L-Ile-D-Pro-)] (cyclo([Asu](NHOH)[dY](Me)I[dP]))
conc. for 2-fold expression (nM) mean (B16/BL6 cells): 1.41 nM | IC50 [1]: 33 nM | IC50 (leukemia L1210 cell line): 18.8 nM | IC50 [2]: 50.7 nM | IC50 [3]: 5.43 nM | tumor weight (B16; B16, 1 mg/kg tail vein on day-7, 10, 13 and 16): 258 ± 184 mg | tumor weight (B16; B16, 3 mg/kg tail vein on day-7, 10, 13 and 16): 280 ± 152 mg | tumor weight (B16; B16, 10 mg/kg tail vein on day-7, 10, 13 and 16): 120 ± 112 mg | tumor weight (Colon 26; Colon 26, 1 mg/kg tail vein on day-4, 7 and 10): 756 ± 25 mg | tumor weight (Colon 26; Colon 26, 3 mg/kg tail vein on day-4, 7 and 10): 677 ± 155 mg | tumor weight (Colon 26; Colon 26, 10 mg/kg tail vein on day-4, 7 and 10): 726 ± 123 mg | tumor weight (Meth A; 1 mg/kg tail vein on day-7, 10, 13 and 16, measured day-21, estimated from diameters): 2100 ± 570 mg | tumor weight (Meth A; 3 mg/kg tail vein on day-7, 10, 13 and 16, measured day-21, estimated from diameters): 1230 ± 500 mg | tumor weight (Meth A; 10 mg/kg tail vein on day-7, 10, 13 and 16, measured day-21, estimated from diameters): 1470 ± 500 mg
